target: c-Myc template DNA (c-myc quadruplex); experiment: Quadruplex binding / stop assay (Taq polymerase arrest, capillary electrophoresis); details: read-out: S DATA; Table 1D, stop assay data

Row | SMILES | IC50
1 | CCN(CC)CCCC(C)NC(=O)c1cn2c3c(c(N4CC5CCCNC5C4)ccc3c1=O)Oc1cc3ccccc3cc1-2 (stereo not shown) [compound 1733] | > 15 µM
2 | CCN(CC)CCCCNC(=O)c1cn2c3c(c(N4CCC(N)C4)c(F)cc3c1=O)Oc1ccc(Cl)cc1-2 (stereo not shown) [compound 1803] | 3 µM
3 | CC1(C)CC(NC(=O)c2cn3c4c(c(NCCN5CCCC5)ccc4c2=O)Oc2cc4ccccc4cc2-3)CC(C)(C)N1 [compound 1519] | 0.75 µM
4 | N#Cc1ccc2c(c1)-n1cc(C(=O)NCCN3CCCC3)c(=O)c3cc(F)c(N4CCC(c5cnccn5)C4)c(c31)O2 (stereo not shown) [compound 1778] | 2.9 µM
5 | CN1CCN(CCCNC(=O)c2cn3c4c(c(N5CCC(N)C5)c(F)cc4c2=O)Oc2ccccc2-3)CC1 (stereo not shown) [compound 1621] | 0.75 µM
6 | CC(C)N1CCN(c2c(F)cc3c(=O)c(C(=O)NCCN4CCOCC4)cn4c3c2Oc2ccccc2-4)CC1 [compound 1562] | > 15 µM
7 | NC1CCN(C(=O)c2cn3c4c(c(NCCN5CCOCC5)c(F)cc4c2=O)Oc2ccccc2-3)C1 (stereo not shown) [compound 1630] | > 15 µM
8 | CN1CCCC1CCNC(=O)c1cn2c3c(c(N4CCC(c5cnccn5)C4)c(F)cc3c1=O)Oc1ccc(C#N)cc1-2 (stereo not shown) [compound 1777] | 6.8 µM
9 | CCN(CC)CCCCNC(=O)c1cn2c3c(c(N4CCC(c5cnccn5)C4)c(F)cc3c1=O)Oc1ccc(Cl)cc1-2 (stereo not shown) [compound 1802] | 4 µM
10 | O=C(NCCN1CCCC1)c1cn2c3c(c(N4CCN(Cc5ccco5)CC4)c(F)cc3c1=O)Oc1cc(Cl)ccc1-2 [compound 1829] | 10 µM
11 | O=C(NCCN1CCOCC1)c1cn2c3c(c(NCCN4CCOCC4)c(F)cc3c1=O)Oc1ccccc1-2 [compound 1605] | > 15 µM

Other lines, results leading:

Row | IC50 | SMILES
12 | 1.75 µM | CN1CCCC1CCNC(=O)c1cn2c3c(c(NCCCCCO)c(F)cc3c1=O)Oc1cc3ccccc3cc1-2 (stereo not shown) [compound 1658]
13 | > 15 µM | CN1CCCC1CCNC(=O)c1cn2c3c(c(NCCCN)c(F)cc3c1=O)Oc1cc(Cl)ccc1-2 (stereo not shown) [compound 1809]
14 | 0.95 µM | CC1CCCCN1CCCNc1c(F)cc2c(=O)c(C(=O)NCCC3CCCN3C)cn3c2c1Oc1cc2ccccc2cc1-3 (stereo not shown) [compound 1489]
15 | 0.92 µM | CN1CCCC1CCNC(=O)c1cn2c3c(c(S(=O)(=O)CCc4cnccn4)c(F)cc3c1=O)Oc1cc3ccccc3cc1-2 (stereo not shown) [compound 1768]
16 | 1.75 µM | CC1CCCN(CCCNc2c(F)cc3c(=O)c(C(=O)NCCC4CCCN4C)cn4c3c2Oc2cc3ccccc3cc2-4)C1 (stereo not shown) [compound 1685]
17 | 1 µM | CN1CCCC1CCNC(=O)c1cn2c3c(c(NC4CC(C)(C)NC(C)(C)C4)c(F)cc3c1=O)Oc1cc3ccccc3cc1-2 (stereo not shown) [compound 1478]
18 | 0.75 µM | NCCCNC(=O)c1cn2c3c(c(N4CCC(N)C4)c(F)cc3c1=O)Oc1cc3ccccc3cc1-2 (stereo not shown) [compound 1716]
19 | 1.75 µM | NC1CCN(c2c(F)cc3c(=O)c(C(=O)NCC(O)CO)cn4c3c2Oc2cc3ccccc3cc2-4)C1 (stereo not shown) [compound 1704]
20 | > 15 µM | CN1CCCC1CCNC(=O)c1cn2c3c(c(N4CCC(N)C4)c(F)cc3c1=O)Oc1ccccc1-2 (stereo not shown) [compound 1623]
21 | > 15 µM | CN1CCCC1CCNC(=O)c1cn2c3c(c(NCCN4CCCC4)c(F)cc3c1=O)Oc1ccccc1-2 (stereo not shown) [compound 1596]
22 | > 15 µM | NCCCCNC(=O)c1cn2c3c(c(NCCN4CCCC4)c(F)cc3c1=O)Oc1ccccc1-2 [compound 1599]
23 | > 15 µM | CN1CCCC1CCNC(=O)c1cn2c3c(c(NC(=O)C4CNCCN4)c(F)cc3c1=O)Oc1cc3ccccc3cc1-2 (stereo not shown) [compound 1505]
24 | 1.75 µM | COc1ccc(OC)c(CCNc2c(F)cc3c(=O)c(C(=O)NCCC4CCCN4C)cn4c3c2Oc2cc3ccccc3cc2-4)c1 (stereo not shown) [compound 1672]

same assay, conditions: read-out: Stop Data c-Myc μM; concentration at which 50% of the DNA was arrested (arrested:full-length 1:1)

Row | SMILES | IC50
25 | CCCCN1CCC(CNC(=O)c2cn3c4c(c(N5CCC(N)C5)c(F)cc4c2=O)Oc2cc4ccccc4cc2-3)CC1 (stereo not shown) [compound 302] | 1.75 µM
26 | CC(C)(C)OC(=O)NC1CCN(c2c(F)cc3c(=O)c(C(=O)NCC[N+](C)(C)C)cn4c3c2Oc2cc3ccccc3cc2-4)C1 (stereo not shown) [compound 188] | 1.75 µM
27 | CN1CCCC1CCNC(=O)c1cn2c3cc4c(cc3oc3c(NCCCN5CCOCC5)c(F)cc(c1=O)c32)c(=O)c1ccccc14 (stereo not shown) [compound 420] | 0.75 µM
28 | CN1CCN(CCCNC(=O)c2cn3c4c(c(NCCCN5CCOCC5)c(F)cc4c2=O)Oc2c-3ccc3ccccc23)CC1 [compound 127] | 1.75 µM
29 | CN(C)CCCCNC(=O)c1cn2c3c(c(N4CCC(NC(=O)OC(C)(C)C)C4)c(F)c(N)c3c1=O)Oc1cc3ccccc3cc1-2 (stereo not shown) [compound 228] | 1.75 µM
30 | COc1ccc2[nH]cc(CCNC(=O)c3cn4c5c(c(N6CCC(N)C6)c(F)cc5c3=O)Oc3cc5ccccc5cc3-4)c2c1 (stereo not shown) [compound 299] | 1.75 µM
31 | CN(C)CCCCNC(=O)c1cn2c3c(c(N4CCC(N)C4)c(F)c(N)c3c1=O)Oc1cc3ccccc3cc1-2 (stereo not shown) [compound 237] | 1.75 µM
32 | NC1CCN(c2c(F)cc3c(=O)c(C(=O)NCc4ccccc4N4CCCCC4)cn4c3c2Oc2cc3ccccc3cc2-4)C1 (stereo not shown) [compound 247] | 1.75 µM
33 | CN1CCN(c2c(F)cc3c(=O)c(C(=O)N4CCC(N)C4)cn4c5cc6c(=O)c7ccccc7c(=O)c6cc5oc2c34)CC1 (stereo not shown) [compound 97] | 2.5 µM
34 | N[C@@H]1CCN(C(=O)c2cn3c4c(c(N5CC[C@@H](N)C5)c(F)cc4c2=O)Oc2c-3ccc3ccccc23)C1 [compound 78] | 2.5 µM
35 | O=C(NCCCN1CCOCC1)c1cn2c3cc4c(=O)c5ccccc5c(=O)c4cc3oc3c(NCCCN4CCOCC4)c(F)cc(c1=O)c32 [compound 166] | 1.75 µM
36 | CN1CCN(CCCNC(=O)c2cn3c4c(c(N5CC[C@@H](NC(=O)CCN6CCCC6)C5)c(F)cc4c2=O)Oc2cc4c(cc2-3)oc2ccccc24)CC1 [compound 174] | 1.75 µM
37 | N[C@@H]1CCN(c2c(F)cc3c(=O)c(C(=O)NCCN4CCOCC4)cn4c3c2Oc2c-4ccc3ccccc23)C1 [compound 77] | 2.5 µM
38 | Nc1c(F)c(N2CCC(N)C2)c2c3c1c(=O)c(C(=O)NCCN1CCCC1)cn3-c1cc3ccccc3cc1O2 (stereo not shown) [compound 233] | 1.75 µM
39 | CN1CCN(C(=O)c2cn3c4c(c(NCCC5CCCN5C)c(F)cc4c2=O)Oc2c-3ccc3ccccc23)CC1 (stereo not shown) [compound 75] | 2.5 µM
40 | CN1CCCC1CCNC(=O)c1cn2c3cc4c(cc3oc3c(N5CC[C@H](NC(=O)OC(C)(C)C)C5)c(F)cc(c1=O)c32)c(=O)c1ccccc14 (stereo partly shown) [compound 421] | 0.75 µM
41 | N[C@@H]1CCN(c2c(F)cc3c(=O)c(C(=O)NCCCN4CCOCC4)cn4c3c2Oc2c-4ccc3ccccc23)C1 [compound 103] | 1.8 µM
42 | CN1CCN(CCCNC(=O)c2cn3c4cc5c(=O)c6ccccc6c(=O)c5cc4oc4c(NCCN5CCCC5)c(F)cc(c2=O)c43)CC1 [compound 491] | 0.45 µM
43 | CN(C)CCCCNC(=O)c1cn2c3c(c(N4CCC(N)C4)c(F)cc3c1=O)Oc1ccccc1-2 (stereo not shown) [compound 460] | 0.75 µM
44 | CN1CCCC1CCNCC(=O)N[C@@H]1CCN(c2c(F)cc3c(=O)c(C(=O)NCCCn4ccnc4)cn4c3c2Oc2cc3c(cc2-4)oc2ccccc23)C1 (stereo partly shown) [compound 414] | 0.75 µM

Continued, values first:

Row | IC50 | SMILES
45 | 1.75 µM | CN1CCCC1CCNC(=O)c1cn2c3c(c(N4CCC(N)CC4)c(F)cc3c1=O)Oc1cc3ccccc3cc1-2 (stereo not shown) [compound 281]
46 | 0.75 µM | CC(=O)N[C@@H]1CCN(c2c(F)cc3c(=O)c(C(=O)NCCC4CCCN4C)cn4c3c2Oc2cc3c(cc2-4)oc2ccccc23)C1 (stereo partly shown) [compound 406]
47 | 2.5 µM | CN1CCCC1CCNc1c(F)cc2c(=O)c(C(=O)N3CC[C@@H](N)C3)cn3c2c1Oc1c-3ccc2ccccc12 (stereo partly shown) [compound 85]
48 | 0.75 µM | NC1CCN(c2c(F)cc3c(=O)c(C(=O)NCCCCN4CCCC4)cn4c3c2Oc2cc3ccccc3cc2-4)C1 (stereo not shown) [compound 431]
49 | 0.18 µM | CN(C)CCCCNC(=O)c1cn2c3c(c(N4CCC(N)C4)ccc3c1=O)Oc1cc3ccccc3cc1-2 (stereo not shown) [compound 589]
50 | 0.75 µM | CN1CCCC1CCNc1ccc2c(=O)c(C(=O)NCCN3CCCC3)cn3c2c1Oc1cc2ccccc2cc1-3 (stereo not shown) [compound 448]
51 | 1 µM | CN1CCCC1CCNC(=O)c1cn2c3c(c(N4CCC(n5c(=O)[nH]c6ccccc65)CC4)c(F)cc3c1=O)Oc1cc3ccccc3cc1-2 (stereo not shown) [compound 324]
52 | 0.375 µM | CC1CCCCN1CCCNc1c(F)cc2c(=O)c(C(=O)NCCC3CCCN3C)cn3c2c1Oc1cc2ccccc2cc1-3 (stereo not shown) [compound 557]
53 | 1.75 µM | CN(CCCNc1c(F)cc2c(=O)c(C(=O)NCCC3CCCN3C)cn3c2c1Oc1cc2ccccc2cc1-3)c1ccccc1 (stereo not shown) [compound 263]
54 | 0.75 µM | CCOC(CCCNc1c(F)cc2c(=O)c(C(=O)NCCC3CCCN3C)cn3c2c1Oc1cc2ccccc2cc1-3)OCC (stereo not shown) [compound 463]
55 | 1 µM | CN1CCCC1CCNC(=O)c1cn2c3c(c(NC4CC(C)(C)NC(C)(C)C4)c(F)cc3c1=O)Oc1cc3ccccc3cc1-2 (stereo not shown) [compound 325]
56 | 1.75 µM | CC1CCCCN1CCCNc1c(F)cc2c(=O)c(C(=O)NCCC3CCCN3C)cn3c2c1Oc1cc2ccccc2cc1-3 (stereo not shown) [compound 259]
57 | 1.75 µM | CCN(CC)C(=O)C1CCCN(c2c(F)cc3c(=O)c(C(=O)NCCC4CCCN4C)cn4c3c2Oc2cc3ccccc3cc2-4)C1 (stereo not shown) [compound 250]
58 | 1.75 µM | CN1CCN(CCCNC(=O)c2cn3c4c(c(NCCC5CCCN5C)c(F)cc4c2=O)Oc2cc4ccccc4cc2-3)CC1 (stereo not shown) [compound 123]
59 | 2.5 µM | CN(C)CCCCNC(=O)c1cn2c3c(c(NCCN4CCOCC4)c(F)cc3c1=O)Oc1cc3ccccc3cc1-2 [compound 59]
60 | 0.375 µM | CN1CCN(CCCNC(=O)c2cn3c4c(c(NCCC5CCCN5C)c(F)cc4c2=O)Oc2c-3ccc3ccccc23)CC1 (stereo not shown) [compound 549]
61 | 1.75 µM | CN1CCCC1CCNC(=O)c1cn2c3c(c(NCC4CCNCC4)c(F)cc3c1=O)Oc1cc3ccccc3cc1-2 (stereo not shown) [compound 252]
62 | 1.75 µM | CN1CCN(CCCNc2c(F)cc3c(=O)c(C(=O)NCCCN4CCOCC4)cn4c3c2Oc2cc3ccccc3cc2-4)CC1 [compound 119]
63 | 0.75 µM | CC1CCN(CCCNc2c(F)cc3c(=O)c(C(=O)NCCC4CCCN4C)cn4c3c2Oc2cc3ccccc3cc2-4)CC1 (stereo not shown) [compound 438]
64 | 0.75 µM | CN(C)CCCCNC(=O)c1cn2c3c(c(NCCCN4CCN(C)CC4)ccc3c1=O)Oc1cc3ccccc3cc1-2 [compound 456]

Reference: patent US7507727B2, “Substituted quinobenzoxazine analogs and methods of using thereof” (Cylene Pharmaceuticals, Inc., priority 2003, dated 2009)
